Experimental data published in ChEMBL document CHEMBL2331141, “Synthesis, characterization, screening and docking analysis of 4-anilinoquinazoline derivatives as tyrosine kinase inhibitors” (Eur J Med Chem, 2013).

target: T1, Epidermal growth factor receptor (Homo sapiens, UniProt P00533); assay: Inhibition of EGFR (unknown origin)
T1 sequence (P00533 whole entry): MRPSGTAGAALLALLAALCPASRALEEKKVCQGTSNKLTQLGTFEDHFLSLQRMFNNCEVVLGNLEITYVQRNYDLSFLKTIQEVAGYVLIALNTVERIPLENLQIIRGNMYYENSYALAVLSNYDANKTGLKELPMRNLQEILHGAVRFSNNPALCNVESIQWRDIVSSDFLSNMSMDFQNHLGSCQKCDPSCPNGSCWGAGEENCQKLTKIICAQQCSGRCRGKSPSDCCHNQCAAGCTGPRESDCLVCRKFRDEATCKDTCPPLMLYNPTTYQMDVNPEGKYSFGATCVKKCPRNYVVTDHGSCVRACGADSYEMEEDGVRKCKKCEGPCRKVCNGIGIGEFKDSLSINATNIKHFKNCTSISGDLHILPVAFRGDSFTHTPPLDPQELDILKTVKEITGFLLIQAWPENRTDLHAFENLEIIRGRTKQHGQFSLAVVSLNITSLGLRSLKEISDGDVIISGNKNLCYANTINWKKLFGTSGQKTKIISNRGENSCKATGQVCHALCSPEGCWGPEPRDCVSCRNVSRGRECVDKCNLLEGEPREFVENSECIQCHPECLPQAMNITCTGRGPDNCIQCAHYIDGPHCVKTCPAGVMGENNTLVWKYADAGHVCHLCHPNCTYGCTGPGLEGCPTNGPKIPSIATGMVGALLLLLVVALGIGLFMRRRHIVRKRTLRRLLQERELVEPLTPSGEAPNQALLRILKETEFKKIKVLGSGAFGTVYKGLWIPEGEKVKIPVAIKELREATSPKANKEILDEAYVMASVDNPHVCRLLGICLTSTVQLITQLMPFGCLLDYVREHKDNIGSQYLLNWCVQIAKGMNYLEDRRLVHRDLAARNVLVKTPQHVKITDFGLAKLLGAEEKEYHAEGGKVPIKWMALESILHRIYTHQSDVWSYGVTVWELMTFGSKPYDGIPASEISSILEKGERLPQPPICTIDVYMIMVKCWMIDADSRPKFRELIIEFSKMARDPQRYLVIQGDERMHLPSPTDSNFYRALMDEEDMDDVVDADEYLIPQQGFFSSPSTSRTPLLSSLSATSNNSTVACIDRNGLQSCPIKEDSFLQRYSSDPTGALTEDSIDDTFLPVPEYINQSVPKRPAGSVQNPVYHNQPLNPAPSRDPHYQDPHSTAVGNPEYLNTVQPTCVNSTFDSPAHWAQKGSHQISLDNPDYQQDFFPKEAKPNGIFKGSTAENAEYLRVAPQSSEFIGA

| SMILES | IC50 |
| --- | --- |
| COc1cc2ncnc(Nc3ccc(C(C)(F)F)cc3)c2cc1OC | 4700 nM |
| COc1cc2ncnc(Nc3ccccc3C(F)(F)F)c2cc1OC | 10000 nM |
| COc1cc2ncnc(Nc3cccc(C(F)(F)F)c3)c2cc1OC | 15 nM |

target: T1, Epidermal growth factor receptor; assay: Inhibition of EGFR (unknown origin) using biotinylated-PTP1B (Tyr66) as substrate incubated for 5 mins prior to substrate addition measured after 1 hr by ELISA

| SMILES | IC50 |
| --- | --- |
| COc1cc2ncnc(Nc3cccc(C#N)c3)c2cc1OC | 413 nM |
| COc1cc2ncnc(Nc3ccccc3)c2cc1OC | 201 nM |
| COc1cc2ncnc(Nc3cccc(SC)c3)c2cc1OC | 127 nM |

Now from value to compound:

| IC50 | SMILES |
| --- | --- |
| 13.6 nM | COc1cc2ncnc(Nc3ccc(F)c(Cl)c3)c2cc1OCCCNCCN |
| 127 nM | COc1cc2ncnc(Nc3cccc(-c4ccccc4)c3)c2cc1OC |
| 63.4 nM | COc1cc2ncnc(Nc3ccc(F)c(Cl)c3)c2cc1OCCO |
| 12.1 nM | COc1cc2ncnc(Nc3ccc(F)c(Cl)c3)c2cc1OCCNCCN |
